Data taken from EP0041644B1 (priority 1980, dated 1981).

Tests used:
L1210 Leukemia [1] = test: L1210 Leukemia - Test 1 (survival of tumor-bearing mice); type: in vivo
Text: This evaluation of the ammonium salt finds the drug to be active against L1210 (ip) leukemia when administered ip one day post-implant of 10^6 L1210 cells (maximum T/C was 164%). […] The vehicle for the ammonium salt was water.

L1210 Leukemia [2] = test: as above; type: in vivo; conditions: for Survivors Day 5(30): qd 1→9, in saline
[3] = 0.5 mg/kg/day ip, qd 1→9, in H2O
[4] = 0.5 mg/kg/day ip, qd 1→9, in saline
[5] = 1 mg/kg/day ip, qd 1→9, in saline
[6] = 2 mg/kg/day ip, qd 1→9, in saline
[7] = 4 mg/kg/day ip, d. 1 only, in H2O
[8] = 4 mg/kg/day ip, d. 1 only, in saline
[9] = 6 mg/kg/day ip, d. 1 only, in H2O
[10] = 6 mg/kg/day ip, d. 1 only, in saline
[11] = 8 mg/kg/day ip, d. 1 only, in H2O
[12] = 8 mg/kg/day ip, d. 1 only, in saline
[13] = 10 mg/kg/day ip, d. 1 only, in H2O
[14] = 10 mg/kg/day ip, d. 1 only, in saline

## N.N.[Cl][Pt][Cl] [Cis-DDP, cis-diammine dichloroplatinum (II)]
L1210 Leukemia [1]; [3]
  Average Weight Change: −3.8
  Effect MST % T/C: 143 % T/C
  MST Days: 10.0 days
  Survivors Day 5(30): 6/6
L1210 Leukemia [1]; [4]
  Average Weight Change: +1.5
  Effect MST % T/C: 100 % T/C
  MST Days: 7.0 days
L1210 Leukemia [1]; 1 mg/kg/day ip, qd 1→9, in H2O
  Average Weight Change: −3.7
  Effect MST % T/C: 114 % T/C
  MST Days: 8.0 days
  Survivors Day 5(30): 6/6
L1210 Leukemia [1]; [5]
  Average Weight Change: −0.9
  Effect MST % T/C: 150 % T/C
  MST Days: 10.5 days
  Survivors Day 5(30): 6/6
L1210 Leukemia [1]; 2 mg/kg/day ip, qd 1→9, in H2O
  Average Weight Change: −4.0
  Effect MST % T/C: 86 % T/C
  MST Days: 6.0 days
  Survivors Day 5(30): 4/6
L1210 Leukemia [1]; [6]
  Average Weight Change: −3.3
  Effect MST % T/C: 250 % T/C
  MST Days: 17.5 days
L1210 Leukemia [1]; [7]
  Average Weight Change: −5.9
  Effect MST % T/C: 100 % T/C
  MST Days: 7.0 days
  Survivors Day 5(30): 6/6
L1210 Leukemia [1]; [8]
  Average Weight Change: −0.7
  Effect MST % T/C: 164 % T/C
  MST Days: 11.5 days
  Survivors Day 5(30): 6/6
L1210 Leukemia [1]; [9]
  Average Weight Change: TOX
  Effect MST % T/C: TOX
  MST Days: TOX
  Survivors Day 5(30): 1/6
L1210 Leukemia [1]; [10]
  Effect MST % T/C: 186 % T/C
  MST Days: 13.0 days
  Survivors Day 5(30): 6/6
L1210 Leukemia [1]; [11]
  Average Weight Change: TOX
  Effect MST % T/C: TOX
  MST Days: TOX
  Survivors Day 5(30): 4/6
L1210 Leukemia [1]; [12]
  Effect MST % T/C: 193 % T/C
  MST Days: 13.5 days
  Survivors Day 5(30): 6/6
L1210 Leukemia [1]; [13]
  Average Weight Change: TOX
  Effect MST % T/C: TOX
  MST Days: TOX
  Survivors Day 5(30): 1/6
L1210 Leukemia [1]; [14]
  Average Weight Change: −3.6
  MST Days: 14.5 days
  Survivors Day 5(30): 6/6
L1210 Leukemia [2]; 0.5 mg/kg/day ip
  Survivors Day 5(30): 6/6
L1210 Leukemia [2]; 2 mg/kg/day ip
  Survivors Day 5(30): 6/6
L1210 Leukemia [2]; [10]
  Average Weight Change: −2.8
L1210 Leukemia [2]; [12]
  Average Weight Change: −4.1
L1210 Leukemia [2]; [14]
  Effect MST % T/C: 207 % T/C
